Source: patent publication US20220249599A1, “TREATMENT OF IMPLANTS WITH ENGINEERED ANTIMICROBIAL AMPHIPHILIC PEPTIDES” (priority 2018, published 2022)
Values after ≈ are worked out from the molar mass of the structure shown. Where two headings read alike, the source gives them in different places.

How the values were obtained:
[1] = system: Klebsiella pneumoniae (n = 101); type: cell-based
Protocol: (§1) The clinical isolates were obtained from USA hospitals. […] Plates were incubated at 35° C. overnight.

[2] = system: Escherichia coli (n = 101); type: cell-based; settings: Escherichia coli (n = 101), CLSI breakpoints, colistin EUCAST
Protocol: as §1

[3] = system: Pseudomonas aeruginosa (n = 109); type: cell-based; settings: Pseudomonas aeruginosa (n = 109), CLSI breakpoints
Protocol: as §1

[4] = system: Acinetobacter spp. (n = 104); type: cell-based; settings: Acinetobacter spp. (n = 104), CLSI breakpoints
Protocol: as §1

[5] = system: Enterobacter spp. (n = 102); type: cell-based, Enterobacter aerogenes and E. cloacae; settings: Enterobacter spp. (n = 102); for % R (isolates resistant): CLSI breakpoints, colistin EUCAST
Protocol: as §1

[6] = system: Enterococcus faecium (n = 104); experiment: microbe, parasite or virus in culture; settings: for % R (isolates resistant): CLSI breakpoints
Protocol: Comparator antibiotics were supplied by Micromyx, and stock solutions were prepared on the first day of testing using solvents recommended by CLSI (1). Stock solutions of all compounds were made at 40× the final testing concentration and stored at −80° C. prior to testing. Information regarding compound source, catalog and lot number, testing concentrations and drug diluent for the comparators and test agent are detailed below in Table 3.
The test organisms evaluated in this study consisted of clinical isolates from the Micromyx Repository and reference isolates from the American Type Culture Collection (ATCC; Manassas, Va.). The clinical isolates were obtained from USA hospitals. Upon initial receipt at Micromyx, the organisms were sub-cultured onto an appropriate agar medium. Following incubation, colonies were harvested from these plates and cell suspensions prepared and frozen at −80° C. with a cryoprotectant. Prior to testing, the isolates were streaked from frozen vials onto Trypticase Soy Agar with 5% sheep blood (Becton Dickenson [BD]; Sparks, MD; Lot Nos. 7173618, 7166759, 7208688, 72144895, 7228505 and Remel Lenexa, Kans. Lot No. 212574). Plates were incubated at 35° C. overnight.
Mueller Hinton II broth (MHB II; BD; Lot Nos. 6258541 and 7143896) was used for MIC testing of aerobic organisms.
(§2) MIC values were determined using a broth microdilution procedure described by CLSI (1, 3). Automated liquid handlers (Multidrop 384, Labsystems, Helsinki, Finland; Biomek 2000 and Biomek FX, Beckman Coulter, Fullerton Calif.) were used to conduct serial dilutions and liquid transfers.
To prepare the drug mother plates, which would provide the serial drug dilutions for the replicate daughter plates, the wells of columns 2-12 of standard 96-well microdilution plates (Costar 3795) were filled with 150 µl of the designated diluent for each row of drug. The test articles and comparator compounds ([…] at 40× the highest concentration to be tested) were dispensed into the appropriate wells in column 1. The Biomek 2000 was then used to make 2-fold serial dilutions in the mother plates from column 1 through column 11. The wells of Column 12 contained no drug and served as the organism growth control wells for the assay.
(§3) The daughter plates were loaded with 185 g L per well of MHB II using the Multidrop 384. The daughter plates were completed on the Biomek FX instrument which transferred 5 µL of drug solution from each well of a mother plate to the corresponding well of each daughter plate in a single step. A standardized inoculum of each test organism was prepared per CLSI methods (1). The inoculum for each organism was dispensed into sterile reservoirs divided by length (Beckman Coulter), and the Biomek 2000 was used to inoculate the plates. Daughter plates were placed on the Biomek 2000 work surface in reverse orientation so that inoculation took place from low to high drug concentration.
Plates were stacked 3-4 high, covered with a lid on the top plate, placed in plastic bags, and incubated at 35° C. for 16 to 20 hrs. Following incubation, the microplates were removed from the incubator and viewed from the bottom using a plate viewer. […] The MIC was read and recorded as the lowest concentration of drug that inhibited visible growth of the organism.
Clinical breakpoints to determine percent resistance within a given organism group were obtained from CLSI (3), with the exception of colistin for K. pneumoniae, Enterobacter spp., and E. coli, which are only available from EUCAST.

[7] = system: Staphylococcus aureus (n = 104); experiment: microbe, parasite or virus in culture; type: cell-based; settings: for % R (isolates resistant): CLSI breakpoints; for MIC range: all methicillin-resistant
Protocol: as §1

[8] = system: Acinetobacter baumannii ATCC BAA-1797 (MDR); experiment: microbe, parasite or virus in culture; type: cell-based; settings: ATCCBAA1797; Acinetobacter baumannii ATCC BAA-1797 (MDR); read-out: MIC
Protocol: Each peptide was formulated in PBS buffer prior to testing. Peptides of SEQ ID NO:5 and SEQ ID NO:8 were brought up in 100% DMSO with 0.002% polysorbate-80 at 1.28 mg/mL (40× the highest final test concentration of 32 mcg/mL). Final test concentration of DMSO was 2.5% in the assay at the first dilution for those two compounds.
Mueller Hinton II broth (MHB II; BD; Lot Nos. 6258541 and 7143896) was used for MIC testing of aerobic organisms. 0.002% polysorbate 80 (P80) was added to the test medium.
as §2
To prepare the drug mother plates, which would provide the serial peptide dilutions for the replicate daughter plates, the wells of columns 2-12 of standard 96-well microdilution plates (Costar 3795) were filled with 150 µl of the designated diluent for each row of peptide.
The test articles and comparator compounds ([…] at 40× the highest concentration to be tested) were dispensed into the appropriate wells in column 1. The Biomek 2000 was then used to make 2-fold serial dilutions in the mother plates from column 1 through column 11. The wells of Column 12 contained no drug and served as the organism growth control wells for the assay.
as §3, with “185 μL” for “185 g L”, “5 uL” for “5 µL”, “of peptide” for “of drug”, “CLSI methods.” for “CLSI methods (1).”
Plates were stacked 3-4 high, covered with a lid on the top plate, placed in plastic bags, and incubated at 35° C. for 16 to 20 hrs. Following incubation, the microplates were removed from the incubator and viewed from the bottom using a plate viewer. […] The MIC was read and recorded as the lowest concentration of peptide that inhibited visible growth of the organism.

[9] = Klebsiella pneumoniae (n = 101), CLSI breakpoints, colistin EUCAST
[10] = Staphylococcus aureus (n = 104)

| SMILES | % R (isolates resistant) [2] [%] | % R (isolates resistant) [3] [%] | % R (isolates resistant) [4] [%] | % R (isolates resistant) [5] [%] | % R (isolates resistant) ([6]; Enterococcus faecium (n = 104)) [%] | % R (isolates resistant) [7, 10] [%] | MIC range [7, 10] [µg/mL] | also measured |
| --- | --- | --- | --- | --- | --- | --- | --- | --- |
| NC[C@H]1O[C@H](O[C@H]2[C@H](O)[C@@H](O[C@H]3O[C@H](CO)[C@@H](O)[C@H](N)[C@H]3O)[C@H](N)C[C@@H]2N)[C@H](N)C[C@@H]1O [Tobramycin] | 21.7 | 7.4 | 49.0 | 3.9 | – | – | – | % R (isolates resistant) [1]: over 60%; % R (isolates resistant) [1, 9]: 59.4%; MIC range [5]: 0.12 to 64 µg/mL |
| CC(=O)NC[C@H]1CN(c2ccc(N3CCOCC3)c(F)c2)C(=O)O1 [Linezolid] | – | – | – | – | 3.8 | 1.9 | 1 to 8 | MIC range ([6]; Enterococcus faecium (n = 104)): 1 to 32 µg/mL; MIC range ([6]; Enterococcus faecium (n = 104), listed as linezolid): 1 to 32 µg/mL |
| C[C@H]1c2cccc(O)c2C(=O)C2=C(O)[C@]3(O)C(=O)C(C(N)=O)=C(O)[C@@H](N(C)C)[C@@H]3[C@@H](O)[C@@H]21 [Doxycycline] | – | – | – | – | 25 | 0 | 0.06 to 8 | – |
| CC(C)(O/N=C(\C(=O)N[C@@H]1C(=O)N2C(C(=O)[O-])=C(C[n+]3ccccc3)CS[C@H]12)c1csc(N)n1)C(=O)O [Ceftazidime] | 33.6 | 14.6 | 61.5 | 36.3 | – | – | – | – |
| CN[C@H](CC(C)C)C(=O)N[C@H]1C(=O)N[C@@H](CC(N)=O)C(=O)N[C@H]2C(=O)N[C@H]3C(=O)N[C@H](C(=O)N[C@H](C(=O)O)c4cc(O)cc(O)c4-c4cc3ccc4O)[C@H](O)c3ccc(c(Cl)c3)Oc3cc2cc(c3O[C@@H]2O[C@H](CO)[C@@H](O)[C@H](O)[C@H]2O[C@H]2C[C@](C)(N)[C@H](O)[C@H](C)O2)Oc2ccc(cc2Cl)[C@H]1O [Vancomycin] | – | – | – | – | 47.1 | 0 | 0.5 to 2 | MIC50 ([6]; Enterococcus faecium): 1 µg/mL (≈ 0.69 µM); MIC90 ([6]; Enterococcus faecium): > 32 µg/mL; MIC90 ([6]; Enterococcus faecium (n = 104)): >32 µg/mL; MIC ([6]; Enterococcus faecium, read-out: Mode (MIC)): > 32 µg/mL; MIC50 ([7]; Staphylococcus aureus): 1 µg/mL (≈ 0.69 µM); MIC90 ([7]; Staphylococcus aureus): 1 µg/mL (≈ 0.69 µM); MIC ([7]; Staphylococcus aureus, read-out: Mode (MIC)): 1 µg/mL (≈ 0.69 µM) |
| CCC[C@@H]1C[C@@H](C(=O)N[C@@H]([C@H]2O[C@H](SC)[C@H](O)[C@@H](O)[C@H]2O)[C@H](C)Cl)N(C)C1 [Clindamycin] | – | – | – | – | – | 37.5 | – | MIC90 [7, 10]: >16 µg/mL |
| C[C@H]1COc2c(N3CCN(C)CC3)c(F)cc3c(=O)c(C(=O)O)cn1c23 [Levofloxacin] | 46.5 | 21.1 | 66.3 | 4.9 | – | 82.7 | – | MIC [8]: 4 µg/mL (≈ 11.1 µM); % R (isolates resistant) [1]: over 60%; % R (isolates resistant) [1, 9]: 67.3%; % R (isolates resistant) ([2]; listed as levofloxacin): ~50%; MIC90 [7, 10]: >8 µg/mL; % R (isolates resistant) ([7]; Staphylococcus aureus (n = 104), listed as levofloxacin): Over 80% |
